Source: PubChem BioAssay (NCI)
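96-well plates; 48 h exposure; 5 concentrations. Endpoints by linear interpolation between flanking doses. Not reached: highest tested concentration assigned. GI50 is the concentration that inhibits growth by half. TGI is the concentration that stops growth completely.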

Tests used:
Assay in all cases: NCI-60 cell line screen, 48 h
SNB-19 CNS = test system: SNB-19 CNS
SR leukemia = test system: SR leukemia
OVCAR-5 ovarian = test system: OVCAR-5 ovarian
MOLT-4 leukemia = test system: MOLT-4 leukemia
SW-620 colon = test system: SW-620 colon
TK-10 renal = test system: TK-10 renal
RPMI-8226 leukemia = test system: RPMI-8226 leukemia
CAKI-1 renal = test system: CAKI-1 renal
SF-295 CNS = test system: SF-295 CNS
HCT-15 colon = test system: HCT-15 colon
CCRF-CEM leukemia = test system: CCRF-CEM leukemia
MDA-MB-468 breast = test system: MDA-MB-468 breast
BT-549 breast = test system: BT-549 breast
HOP-92 NSCLC = test system: HOP-92 NSCLC
NCI-H23 lung = test system: NCI-H23 lung
OVCAR-4 ovarian = test system: OVCAR-4 ovarian
UACC-62 melanoma = test system: UACC-62 melanoma
A549 NSCLC = test system: A549 NSCLC
HT29 colon = test system: HT29 colon
MALME-3M melanoma = test system: MALME-3M melanoma
NCI-H460 lung = test system: NCI-H460 lung
ACHN renal = test system: ACHN renal
T-47D breast = test system: T-47D breast
NCI/ADR-RES ovarian = test system: NCI/ADR-RES ovarian
LOX IMVI melanoma = test system: LOX IMVI melanoma
SK-MEL-28 melanoma = test system: SK-MEL-28 melanoma
K-562 leukemia = test system: K-562 leukemia
PC-3 prostate = test system: PC-3 prostate
HL-60(TB) leukemia = test system: HL-60(TB) leukemia
SF-268 CNS = test system: SF-268 CNS
SK-MEL-5 melanoma = test system: SK-MEL-5 melanoma
SN12C renal = test system: SN12C renal
MCF7 breast = test system: MCF7 breast
HOP-62 NSCLC = test system: HOP-62 NSCLC
U251 CNS = test system: U251 CNS
OVCAR-3 ovarian = test system: OVCAR-3 ovarian
SF-539 CNS = test system: SF-539 CNS
EKVX NSCLC = test system: EKVX NSCLC
RXF 393 renal = test system: RXF 393 renal
IGROV1 ovarian = test system: IGROV1 ovarian
KM12 colon = test system: KM12 colon
NCI-H522 lung = test system: NCI-H522 lung
HCT-116 colon = test system: HCT-116 colon
MDA-MB-435 = test system: MDA-MB-435
A498 renal = test system: A498 renal
HCC-2998 colon = test system: HCC-2998 colon
NCI-H226 lung = test system: NCI-H226 lung
M14 melanoma = test system: M14 melanoma
786-0 renal = test system: 786-0 renal
OVCAR-8 ovarian = test system: OVCAR-8 ovarian
HS 578T breast = test system: HS 578T breast
SK-OV-3 ovarian = test system: SK-OV-3 ovarian
COLO 205 colon = test system: COLO 205 colon
DU-145 prostate = test system: DU-145 prostate
UACC-257 melanoma = test system: UACC-257 melanoma

`CS(=O)(=O)Nc1ccc(-c2ccc3c(c2)ncn3-c2ccc(NC(=O)Nc3ccc(Cl)c(C(F)(F)F)c3)cc2)cc1` was tested, and the GI50 (SNB-19 CNS) was 3.23 µM, the TGI (SNB-19 CNS) was 12 µM and the GI50 (SR leukemia) was 1.61 µM. For the same compound, the TGI (SR leukemia) was 3.71 µM, the GI50 (OVCAR-5 ovarian) was 3.03 µM and the TGI (OVCAR-5 ovarian) was 11.1 µM. The GI50 (MOLT-4 leukemia) was 1.72 µM, the TGI (MOLT-4 leukemia) was 5.05 µM and the GI50 (SW-620 colon) was 2.97 µM. The TGI (SW-620 colon) was 12.8 µM, the GI50 (TK-10 renal) was 3.83 µM and the TGI (TK-10 renal) was 13.5 µM. The GI50 (RPMI-8226 leukemia) was 1.9 µM, the TGI (RPMI-8226 leukemia) was 5.16 µM and the GI50 (CAKI-1 renal) was 4.73 µM. It also gave a TGI (CAKI-1 renal) of 20.9 µM, a GI50 (SF-295 CNS) of 1.54 µM and a TGI (SF-295 CNS) of 3.21 µM. The GI50 (HCT-15 colon) was 2.73 µM, the TGI (HCT-15 colon) was 10.1 µM and the GI50 (CCRF-CEM leukemia) was 2.72 µM. The TGI (CCRF-CEM leukemia) was 8.84 µM, the GI50 (MDA-MB-468 breast) was 2.43 µM and the TGI (MDA-MB-468 breast) was 7.78 µM. For the same compound, the GI50 (BT-549 breast) was 2.99 µM, the TGI (BT-549 breast) was 7.17 µM and the GI50 (HOP-92 NSCLC) was 3.41 µM. The TGI (HOP-92 NSCLC) was 8.67 µM, the GI50 (NCI-H23 lung) was 2.42 µM and the TGI (NCI-H23 lung) was 7.92 µM. For the same compound, the GI50 (OVCAR-4 ovarian) was 4.05 µM, the TGI (OVCAR-4 ovarian) was 21.1 µM and the GI50 (UACC-62 melanoma) was 1.91 µM. For the same compound, the TGI (UACC-62 melanoma) was 4.23 µM, the GI50 (A549 NSCLC) was 3 µM and the TGI (A549 NSCLC) was 10.8 µM. For the same compound, the GI50 (HT29 colon) was 2.95 µM, the TGI (HT29 colon) was 10.8 µM and the GI50 (MALME-3M melanoma) was 2.1 µM. The TGI (MALME-3M melanoma) was 5.58 µM, the GI50 (NCI-H460 lung) was 2.64 µM and the TGI (NCI-H460 lung) was 9.49 µM. The GI50 (ACHN renal) was 2.72 µM, the TGI (ACHN renal) was 9.66 µM and the GI50 (T-47D breast) was 2.69 µM. The TGI (T-47D breast) was 12.2 µM, the GI50 (NCI/ADR-RES ovarian) was 5.19 µM and the TGI (NCI/ADR-RES ovarian) was 24.8 µM. The GI50 (LOX IMVI melanoma) was 2.63 µM, the TGI (LOX IMVI melanoma) was 7.31 µM and the GI50 (SK-MEL-28 melanoma) was 2.53 µM. The TGI (SK-MEL-28 melanoma) was 10.3 µM, the GI50 (K-562 leukemia) was 1.95 µM and the TGI (K-562 leukemia) was 5.48 µM. It also gave a GI50 (PC-3 prostate) of 2.81 µM, a TGI (PC-3 prostate) of 10.3 µM and a GI50 (HL-60(TB) leukemia) of 1.79 µM. For the same compound, the TGI (HL-60(TB) leukemia) was 4.02 µM, the GI50 (SF-268 CNS) was 3.42 µM and the TGI (SF-268 CNS) was 15.4 µM. For the same compound, the GI50 (SK-MEL-5 melanoma) was 1.85 µM, the TGI (SK-MEL-5 melanoma) was 3.87 µM and the GI50 (SN12C renal) was 2.99 µM. For the same compound, the TGI (SN12C renal) was 11.2 µM, the GI50 (MCF7 breast) was 1.86 µM and the TGI (MCF7 breast) was 5.04 µM. It also gave a GI50 (HOP-62 NSCLC) of 2.06 µM, a TGI (HOP-62 NSCLC) of 4.96 µM and a GI50 (U251 CNS) of 2.49 µM. The TGI (U251 CNS) was 10.8 µM, the GI50 (OVCAR-3 ovarian) was 3.17 µM and the TGI (OVCAR-3 ovarian) was 10.6 µM. For the same compound, the GI50 (SF-539 CNS) was 1.56 µM, the TGI (SF-539 CNS) was 6.52 µM and the GI50 (EKVX NSCLC) was 2.89 µM. The TGI (EKVX NSCLC) was 10.2 µM, the GI50 (RXF 393 renal) was 1.05 µM and the TGI (RXF 393 renal) was 3.83 µM. The GI50 (IGROV1 ovarian) was 3.24 µM, the TGI (IGROV1 ovarian) was 11.5 µM and the GI50 (KM12 colon) was 0.38 µM. For the same compound, the TGI (KM12 colon) was 9.59 µM, the GI50 (NCI-H522 lung) was 2.33 µM and the TGI (NCI-H522 lung) was 8.12 µM. It also gave a GI50 (HCT-116 colon) of 2.9 µM, a TGI (HCT-116 colon) of 9.97 µM and a GI50 (MDA-MB-435) of 2.97 µM. The TGI (MDA-MB-435) was 12.4 µM, the GI50 (A498 renal) was 2.42 µM and the TGI (A498 renal) was 7.41 µM. For the same compound, the GI50 (HCC-2998 colon) was 4.32 µM, the TGI (HCC-2998 colon) was 14.7 µM and the GI50 (NCI-H226 lung) was 3.05 µM. For the same compound, the TGI (NCI-H226 lung) was 11.8 µM, the GI50 (M14 melanoma) was 2.38 µM and the TGI (M14 melanoma) was 9.11 µM. For the same compound, the GI50 (786-0 renal) was 1.87 µM, the TGI (786-0 renal) was 4.42 µM and the GI50 (OVCAR-8 ovarian) was 2.38 µM. The TGI (OVCAR-8 ovarian) was 6.87 µM, the GI50 (HS 578T breast) was 2.14 µM and the TGI (HS 578T breast) was 6.46 µM. The GI50 (SK-OV-3 ovarian) was 2.84 µM, the TGI (SK-OV-3 ovarian) was 9.55 µM and the GI50 (COLO 205 colon) was 2.05 µM. The TGI (COLO 205 colon) was 5.15 µM, the GI50 (DU-145 prostate) was 3.84 µM and the TGI (DU-145 prostate) was 17.1 µM. For the same compound, the GI50 (UACC-257 melanoma) was 2.43 µM and the TGI (UACC-257 melanoma) was 6.85 µM.
